The values that follow come from PubChem BioAssay (NCI).

Common to all, as to assay: NCI-60 cell line screen, 48 h
For test [1], the system named is 786-0 renal.
Test [2] concerns CCRF-CEM leukemia.
Test [3] has as its system DLD-1 colon.
For test [4], the system named is K-562 leukemia.
The test system of test [5] is M19-MEL melanoma.
Test [6] deals with SK-MEL-28 melanoma.
Test [7] concerns SN12C renal.
Test [8] has as its system SNB-19 CNS.
The test system of test [9] is SNB-78 CNS.

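Five concentrations, 48 hours, 96-well plates. TGI: total growth inhibition.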

Regarding `COc1cccc(N2C(=O)c3c(c4[nH]c5ccccc5c4c4ccc(C(C)(C)C)cc34)C2=O)c1`, the TGI in [1], in [2], in [3], in test [4], in test [5] and in test [6] was over 100 µM throughout. The TGI in test [7], in test [8] and in [9] was over 100 µM each time.

Regarding `COc1ccc2[nH]cc(CCNC(C)=O)c2c1`, the TGI in test [1], in [2], in test [3], in [4], in test [5] and in [6] was over 100 µM each time. For the same molecule, the TGI in [7], in test [8] and in test [9] was over 100 µM each time.

Consider `COC(=O)c1c[nH]cc1CCc1c[nH]cc1C(=O)OC`, for which the TGI in test [1], in test [2], in [4], in test [5], in test [6] and in test [7] was over 100 µM in each case. Besides, the TGI in test [8] and in [9] was over 100 µM throughout.

Regarding `CN(C)c1ccc(-c2cc(=O)c3ccccc3[nH]2)cc1`, the TGI in test [1], in [2], in test [3], in test [4], in [5] and in test [6] was over 100 µM throughout. The TGI in test [7], in test [8] and in test [9] was over 100 µM each time.

Regarding `O=C(O)c1ccc(S(=O)(=O)c2ccccc2)c([N+](=O)[O-])c1`, the TGI in test [1], in test [2], in test [3], in test [4], in test [5] and in test [6] was over 100 µM in each case. Moreover, the TGI in [7], in test [8] and in test [9] was over 100 µM throughout.

Take `CC[C@@H]1C[C@@H]2CN3CCc4c([nH]c5ccc(OC)cc45)C(COC(=O)c4ccc(OC)c(OC)c4)(C2)C13`: the TGI is over 100 µM in test [1]; 95.7 µM in test [2]; 43 µM in [4]; over 100 µM in test [5]; over 100 µM in test [6]; 39.3 µM in test [7]. For the same molecule, the TGI in [8] and in test [9] was over 100 µM throughout.

Turning to `O=C(Cc1nc2ccccc2s1)C(=O)Nc1ccc(Cl)cc1`, the TGI in test [1], in test [3], in test [4], in test [5], in [6] and in test [7] was over 100 µM each time. Also, the TGI in [8] and in test [9] was over 100 µM throughout.

Consider `CCCCCCCCCCCCCS(=O)(=O)O`, for which the TGI in test [1], in [2], in test [3], in test [5], in [6] and in [7] was over 100 µM each time. Moreover, the TGI in test [8] and in test [9] was over 100 µM throughout.

For `CC(=O)Nc1ccc(/C=C(\NC(=O)c2ccccc2)c2nc3ccc4c(c3[nH]2)C(=O)c2ccccc2C4=O)cc1`, the TGI in test [1], in [2], in test [3], in test [4], in [5] and in test [6] was over 100 µM in each case. For the same molecule, the TGI in [7], in [8] and in test [9] was over 100 µM each time.

With `CC(=O)N1CCC2(C=Nc3ccccc32)CC1`, the TGI in test [1], in test [2], in test [3], in test [4], in test [5] and in [6] was over 100 µM throughout. Moreover, the TGI in [9] is over 100 µM.

Regarding `CSC(=S)c1ccc(C(=S)SC)cc1`, the TGI in test [1], in test [3], in [4], in [5], in [7] and in test [8] was over 100 µM each time. The TGI in test [9] was over 100 µM.

For `C/C(=N\NC(=S)N1CCCCCC1)c1nccnc1C`, the TGI is over 100 µM in test [1]; over 100 µM in test [3]; over 100 µM in test [4]; 15.6 µM in test [5]; over 100 µM in test [6]; over 100 µM in test [7]. In addition, the TGI in test [9] was over 100 µM.

In the case of `CC(C)C(C(=O)O)N(CC1(O)OCC(O)C(O)C1O)N=O` (centres undefined), the TGI in [1], in test [2], in test [3], in [4], in [5] and in test [6] was over 100 µM each time. The molecule further had a TGI in test [9] of over 100 µM.

Turning to `CCN(CC)CCCN(c1cc(OC)cc2nccnc12)S(=O)(=O)c1ccc(C)cc1`, the TGI in [1], in test [2], in test [3], in test [4], in test [5] and in [6] was over 100 µM each time. In addition, the TGI in test [7] and in test [8] was over 100 µM each time.

Turning to `O=C(Nc1ccc(Cl)c(C(F)(F)F)c1)C(=O)C(C(=O)/C=C/c1ccccc1)C1OC(=O)c2ccccc21` (centres undefined), the TGI in test [1], in test [2], in [3], in [4], in test [5] and in [7] was over 100 µM in each case. The TGI in test [8] and in test [9] was over 100 µM in each case.

On to `CCNc1nnc(CSc2nc(-c3ccccc3)c(-c3ccccc3)[nH]2)s1`, for which the TGI in [1] stood at 56.6 µM; in test [2] it was 40.3 µM; in [3], 52.7 µM; in test [5], 32.1 µM; in [6], 36.1 µM; in test [7], 56.5 µM. Further, the TGI in test [8] was 34 µM; in [9], 96.3 µM.
